Read-outs that look alike come from different tables or passages of the source.
Key:
[1] = system: Trypanosoma cruzi (intracellular amastigotes); assay: In vitro anti-parasitic assay, T. cruzi (β-galactosidase/CPRG readout); details: TULAHUEN, MRC-5 SV2, read-out: IC50 T. cruzi
[2] = system: human lung fibroblasts (MRC-5); assay: In vitro cytotoxicity assay, MRC-5SV2 cells (resazurin); assay type: cell-based; details: for IC50: Homo sapiens, MRC5, 72 h, cytotoxicity, lung fibroblast, 3 days
Experimental: (§1) Briefly, 1.5 × 10^5 cells/mL cells were cultured with compound dilutions at 37 °C and with 5% CO2. Cell growth was compared to untreated-control wells (100% cell growth) and medium-control wells (0% cell growth). After 3 days incubation, cell viability was assessed fluorometrically after addition of 50 μL resazurin per well. […] The results were expressed as % reduction in cell growth/viability compared to control wells and an IC50 value was determined.

[3] = system: primary mouse macrophages (PMMs); assay: In vitro cytotoxicity against primary mouse macrophages; assay type: cell-based; details: for IC50: Macrophage, cytotoxicity, primary mouse macrophages
[4] = system: Trypanosoma brucei brucei (blood stream trypomastigotes); assay: Drug susceptibility resazurin assay, T. b. brucei; details: 72 h, read-out: IC50 T. b. brucei
[5] = system: Trypanosoma brucei rhodesiense (blood stream trypomastigotes); assay: Drug susceptibility resazurin assay, T. b. rhodesiense; details: 72 h, read-out: IC50 T. b. rhodesiense
[6] = system: T. cruzi, T. b. brucei, T. b. rhodesiense and L. infantum; assay: Antikinetoplastid activity, whole panel, verdict in words; details: compounds lacking the chalcone moiety
[7] = system: Leishmania infantum (intracellular amastigotes); assay: In vitro anti-Leishmania assay in primary peritoneal mouse macrophages (Giemsa, microscopy); details: Macrophage, 120 h, read-out: IC50 L. infantum
[8] = In vitro cytotoxicity assay, MRC-5SV2 cells (resazurin); assay type: cell-based, human; details: human, MRC-5SV2 cells (human lung fibroblasts); cytotoxicity; read-out: CC50 against MRC-5
Experimental: as §1

[9] = system: promastigotes of L. aethiopica; details: cited from earlier work
[10] = system: amastigotes of L. aethiopica; set-up: method as in Bekhit et al. [2015]; details: ref Bekhit et al. [2015]; cited from earlier work
[11] = system: T. b. rhodesiense; set-up: method as in Bhambra et al. [2017]; details: ref Bhambra et al. [2017]; read-out: IC50 against T. b. rhodesiense; cited from earlier work
[12] = system: L. amazonensis; set-up: method as in Bernardino et al. [2006]; details: ref Bernardino et al. [2006]; read-out: IC50 against L. amazonensis; cited from earlier work
[13] = system: T. b. rhodesiense; set-up: method as in Agarwal et al. [2024]; details: imidazo[1,2-a]pyridine-chalcones; ref Agarwal et al. [2024]; read-out: IC50 against T. b. rhodesiense; cited from earlier work
[14] = system: L. panamensis; set-up: method as in García et al. [2018]; details: ref García et al. [2018]; read-out: EC50 against L. panamensis; cited from earlier work
[15] = system: T. cruzi; set-up: method as in García et al. [2018]; details: ref García et al. [2018]; read-out: EC50 against T. cruzi; cited from earlier work

Structure (SMILES) | IC50 [1] | IC50 [2] | IC50 [3] | IC50 [4] | IC50 [5] | IC50 [7] | further results
O=C(Cn1ccnc1[N+](=O)[O-])NCc1ccccc1 [Benznidazole, reference compound] | 1.35 µM |  |  |  |  |  | 
O=C(O)c1cn(-c2ccccc2)nc1-c1ccccc1 [Compound 5, 1,3-diphenyl-1H-pyrazole-4-carboxylic acid] | > 64 µM | 33 µM | > 64 µM | > 64000 nM | > 64000 nM | > 64 µM | antikinetoplastid activity, in words [6]: inactive
CC(=O)c1ccc(NC(=O)c2cn(-c3ccccc3)nc2-c2ccccc2)cc1 [Compound 7, N-(4-acetylphenyl)-1,3-diphenyl-1H-pyrazole-4-carboxamide] | > 64 µM | 14.4 µM | > 64 µM | > 64000 nM | > 64000 nM | > 64 µM | melting point: 149 to 150 °C; antikinetoplastid activity, in words [6]: inactive
O=C(C=Cc1ccccc1)c1ccc(NC(=O)c2cn(-c3ccccc3)nc2-c2ccccc2)cc1 [Compound 9a, N-(4-cinnamoylphenyl)-1,3-diphenyl-1H-pyrazole-4-carboxamide] | > 53.2 µM | > 64 µM | 32 µM | 770 ± 270 nM | 960 ± 490 nM | 7.16 ± 1.88 µM | cytotoxicity against human lung fibroblasts (MRC-5), in words [2]: non-cytotoxic; cytotoxicity against primary mouse macrophages (PMMs), in words [3]: non-cytotoxic; melting point: 160 to 161 °C
Cc1ccccc1/C=C/C(=O)c1ccc(NC(=O)c2cn(-c3ccccc3)nc2-c2ccccc2)cc1 [Compound 9b, (E)-1,3-diphenyl-N-(4-(3-(o-tolyl)acryloyl)phenyl)-1H-pyrazole-4-carboxamide] | > 64 µM | > 64 µM | > 36 µM | 510 ± 60 nM | 540 ± 240 nM | 18.7 ± 9.18 µM | cytotoxicity against human lung fibroblasts (MRC-5), in words [2]: non-cytotoxic; cytotoxicity against primary mouse macrophages (PMMs), in words [3]: non-cytotoxic
COc1cccc(/C=C/C(=O)c2ccc(NC(=O)c3cn(-c4ccccc4)nc3-c3ccccc3)cc2)c1 [Compound 9c, (E)-N-(4-(3-(3-methoxyphenyl)acryloyl)phenyl)-1,3-diphenyl-1H-pyrazole-4-carboxamide] |  | 10.7 µM |  |  |  |  | CC50 at 3 days [8]: 10.7 µM
COc1ccc(/C=C/C(=O)c2ccc(NC(=O)c3cn(-c4ccccc4)nc3-c3ccccc3)cc2)cc1 [Compound 9d, (E)-N-(4-(3-(4-methoxyphenyl)acryloyl)phenyl)-1,3-diphenyl-1H-pyrazole-4-carboxamide] | > 64 µM | > 64 µM | > 64 µM | 1640 ± 120 nM | 690 ± 310 nM | 31.8 ± 19.1 µM | melting point: 174 to 175 °C
O=C(/C=C/c1ccc(Br)cc1)c1ccc(NC(=O)c2cn(-c3ccccc3)nc2-c2ccccc2)cc1 [Compound 9e, (E)-N-(4-(3-(4-bromophenyl)acryloyl)phenyl)-1,3-diphenyl-1H-pyrazole-4-carboxamide] | > 64 µM | 34.9 µM | > 64 µM | 1130 ± 630 nM | 1370 ± 20 nM | > 46.8 µM | 
O=C(/C=C/c1ccccc1Cl)c1ccc(NC(=O)c2cn(-c3ccccc3)nc2-c2ccccc2)cc1 [Compound 9f, (E)-N-(4-(3-(2-chlorophenyl)acryloyl)phenyl)-1,3-diphenyl-1H-pyrazole-4-carboxamide] | 13.4 ± 4.95 µM | > 64 µM | > 64 µM | 600 ± 330 nM | 810 ± 90 nM | 18.7 ± 9.18 µM | 
O=C(/C=C/c1cccc(Cl)c1)c1ccc(NC(=O)c2cn(-c3ccccc3)nc2-c2ccccc2)cc1 [Compound 9g, (E)-N-(4-(3-(3-chlorophenyl)acryloyl)phenyl)-1,3-diphenyl-1H-pyrazole-4-carboxamide] |  | 6.2 µM |  |  |  |  | CC50 at 3 days [8]: 6.2 µM
O=C(/C=C/c1cccc(F)c1)c1ccc(NC(=O)c2cn(-c3ccccc3)nc2-c2ccccc2)cc1 [Compound 9h, (E)-N-(4-(3-(3-fluorophenyl)acryloyl)phenyl)-1,3-diphenyl-1H-pyrazole-4-carboxamide] | > 64 µM | 24.8 µM | > 48 µM | 6360 ± 110 nM | 1560 ± 110 nM | 21 ± 11 µM | 
O=C(/C=C/c1ccc(F)cc1)c1ccc(NC(=O)c2cn(-c3ccccc3)nc2-c2ccccc2)cc1 [Compound 9i, (E)-N-(4-(3-(4-fluorophenyl)acryloyl)phenyl)-1,3-diphenyl-1H-pyrazole-4-carboxamide] | > 54.2 µM | > 64 µM | > 64 µM | 780 ± 260 nM | 1120 ± 740 nM | > 37.4 µM | 
O=C(/C=C/c1ccc(Cl)c(Cl)c1)c1ccc(NC(=O)c2cn(-c3ccccc3)nc2-c2ccccc2)cc1 [Compound 9j, (E)-N-(4-(3-(3,4-dichlorophenyl)acryloyl)phenyl)-1,3-diphenyl-1H-pyrazole-4-carboxamide] | 46.1 µM | 22.3 µM | > 64 µM | 4630 nM | 4520 nM | > 64 µM | melting point: 200 to 201 °C
O=C(/C=C/c1cccc([N+](=O)[O-])c1)c1ccc(NC(=O)c2cn(-c3ccccc3)nc2-c2ccccc2)cc1 [Compound 9k, (E)-N-(4-(3-(3-nitrophenyl)acryloyl)phenyl)-1,3-diphenyl-1H-pyrazole-4-carboxamide] | > 64 µM | 19.4 µM | > 64 µM | 6690 nM | 8220 nM | 45.2 µM | 
O=C(/C=C/c1cccs1)c1ccc(NC(=O)c2cn(-c3ccccc3)nc2-c2ccccc2)cc1 [Compound 9l, (E)-1,3-diphenyl-N-(4-(3-(thiophen-2-yl)acryloyl)phenyl)-1H-pyrazole-4-carboxamide] | > 64 µM | 39.2 µM | > 64 µM | 13200 ± 19000 nM | 2700 ± 30 nM | > 53.5 µM | melting point: 210 to 211 °C
O=C(/C=C/c1cccnc1)c1ccc(NC(=O)c2cn(-c3ccccc3)nc2-c2ccccc2)cc1 [Compound 9m, (E)-1,3-diphenyl-N-(4-(3-(pyridin-3-yl)acryloyl)phenyl)-1H-pyrazole-4-carboxamide] |  | 0.26 µM |  |  |  |  | CC50 at 3 days [8]: 0.26 µM; melting point: 198 to 199 °C
O=C(/C=C/c1ccc2c(c1)OCO2)c1ccc(NC(=O)c2cn(-c3ccccc3)nc2-c2ccccc2)cc1 [Compound 9n, (E)-N-(4-(3-(benzo[d][1,3]dioxol-5-yl)acryloyl)phenyl)-1,3-diphenyl-1H-pyrazole-4-carboxamide] | > 64 µM | 64 µM | > 64 µM | 3440 ± 2880 nM | 460 ± 70 nM | > 57.4 µM | cytotoxicity against human lung fibroblasts (MRC-5), in words [2]: non-cytotoxic; cytotoxicity against primary mouse macrophages (PMMs), in words [3]: non-cytotoxic; melting point: 182 to 183 °C
CC(=O)C(C1=NN(C(C)=O)C(c2cn(-c3ccc(Br)cc3)nc2-c2ccc([N+](=O)[O-])cc2)S1)c1ccccc1 (stereo not drawn) [III] |  |  |  |  |  |  | IC50 against promastigotes of L. aethiopica ([9]; ref Bekhit et al. [2015]): 0.0142 µg/mL; IC50 against amastigotes of L. aethiopica [10]: 0.13 µg/mL
Cc1ccc(-n2cc(/C=C/C(=O)c3cccs3)c(-c3ccccc3)n2)cc1 [II] |  |  |  |  |  |  | EC50 against promastigotes of L. aethiopica ([9]; ref Bekhit et al. [2014]): 0.079 µg/mL
O=C(/C=C/c1cccnc1)c1ccccc1Br [IV] |  |  |  |  |  |  | IC50 [11]: 380 nM
O=[N+]([O-])c1ccc(N/N=C/c2cnn(-c3ccc(Br)cc3)c2)cc1 [I] |  |  |  |  |  |  | IC50 [12]: 50 µM
CCCCCCCCCCCCCCCCOP(=O)([O-])OCC[N+](C)(C)C [Miltefosine, reference compound] |  |  |  |  |  | 7.13 µM | 
Cc1ccc(C(=O)Nc2ccc(S(=O)(=O)O)c3cc(S(=O)(=O)O)cc(S(=O)(=O)O)c23)cc1NC(=O)c1cccc(NC(=O)Nc2cccc(C(=O)Nc3cc(C(=O)Nc4ccc(S(=O)(=O)O)c5cc(S(=O)(=O)O)cc(S(=O)(=O)O)c45)ccc3C)c2)c1 [Suramine, reference compound] |  |  |  | 40 nM | 50 nM |  | 
O=C(/C=C/c1ccc(Br)cc1)c1ccc(NC(=O)c2cn3ccccc3n2)cc1 [VI] |  |  |  |  |  |  | IC50 [13]: 1130 nM
CC(CCCCCCC[n+]1ccn(C)c1)Oc1ccc(C(=O)/C=C/c2ccco2)cc1 (stereo not drawn) [V] |  |  |  |  |  |  | EC50 [14]: 780 nM; EC50 [15]: 660 nM

Reference: PMC11978679, “Pyrazolyl amide-chalcones conjugates: Synthesis and antikinetoplastid activity” (Naunyn-Schmiedeberg's Archives of Pharmacology, 2024)
